Reference: patent publication US20180098969A1, “HODGKIN LYMPHOMA THERAPY” (Purdue Pharmaceutical Products L.P., priority 2016, published 2018)

Tests used:
[1] = test system: Hodgkin lymphoma cell lines (KMH2, HDML2, L540, L1236 and L426); assay: IC50 comparison of bendamustine, vorinostat and EDO-S101; format: cell-based, human; settings: tumour cells of Hodgkin lymphoma
Experimental: (a) Five Hodgkin lymphoma cell lines (KMH2, HDML2, L540, L1236 and L426) were cultured separately in the presence of bendamustine, vorinostat and EDO-S101 dissolved in DMSO at 37° C. L1236-derived Hodgkin lymphoma cell lines were selected as they have an acquired stable resistance to bendamustine (R100) or an ability to display continuous growth upon extended exposure to sub-lethal concentrations of bendamustine (R25, R50 and R75). A detailed description of the L1236-R Hodgkin lymphoma cell lines is disclosed in De Filippi et al, ASH 2015, Abstract. # 2479. In these tests, the L1236-100R bendamustine resistant strain was used.

L428 cells [2] = assay: Cytogenetic investigation of cells from xenografted mice; format: in vivo, NSG mice; settings: different doses including single 60 mg/kg
Experimental: Separated cells were cultured in the presence of RPMI 1640 supplemented with 10% Fetal Calf Serum (FCS) and antibiotics, colcemid (0.1 μg/ml) added 2 h before harvesting, and the slides with metaphase chromosomes prepared following the standard methanol/acetic acid (3/1, v/v) procedure.
Four new cell lines were generated after one month of in vitro culture following 24 hour of exposure to EDO-S101. Fluorescence in situ hybridysation (FISH) was performed using a combination of standard procedures from the recommended protocols for chromosomal analysis, following telomere and centromere staining, using peptide nucleic acid (PNA) probes in order to detect unstable chromosomal aberrations and to delimit the chromosome territory. M-FISH was performed using multi-FISH probes (Metasystems GmbH, Altlussheim, Germany), according to the manufacturer's recommendations on the same slide. Images of hybridized metaphases were captured using a charge coupled device camera (Zeiss, Thornwood, N.Y.) coupled to a Zeiss Axioplan microscope and processed using ISIS software (Metasystems).
The ocular tumour masses were harvested, as well as cells which infiltrated the liver. Five new cell lines were established from ocular tumours and the livers of both control mice (PBS or vehicle). […]

L428 cells [3] = assay: Orbital tumour mass at injection site in xenografted mice; format: in vivo, NSG mice; settings: after injection
Experimental: Two independent experiments were performed to investigate the dose-effect of EDO-S101 in NSG mice eight weeks after xenografting with L428 cells as in Example 8. The aim of the protocol shown in FIG. 8B was to evaluate the effect of sequential treatment with a moderate dose of 60 mg/kg given at an interval of three weeks.
Some mice developed an orbital tumour mass at the site of the injection. […] In one mouse only that was treated with two doses of 60 mg/kg of EDO-S101, a regression of the orbital tumour was initially observed followed by re-establishment of the orbital mass 3 weeks later. However, this was the only instance observed of re-establishment of the orbital mass after treatment with EDO-S101 at either concentration.

Cn1c(CCCCCCC(=O)NO)nc2cc(N(CCCl)CCCl)ccc21 [EDO-S101]
IC50s compared with those of bendamustine [1]: about ten-fold lower | metaphases or cell lines from cells of treated mice (L428 cells [2]): not possible to obtain either metaphases from direct culture or establish cell lines | orbital tumour mass (L428 cells [3]): signification regression
